# Laboratory results from PubChem BioAssay (NCI).
# Several values for one entry are separate records, joined by “and”; a condition that tells them apart may be missing. Identical values can stand only once.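 Cultured in 96-well plates, cells were exposed to test compound for 48 hours across five concentrations. GI50 is the concentration that inhibits growth by half. At the TGI there is no net growth.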
# Assays:
# Assay in all cases: inhibition of tumour cell growth, NCI panel, 48 h
# [1] = tested on: COLO 205 colon
# [2] = tested on: HCT-116 colon
# [3] = tested on: KM12 colon
# [4] = tested on: LOX IMVI melanoma
# [5] = tested on: RPMI-8226 leukemia
# [6] = tested on: SK-MEL-2 melanoma
# [7] = tested on: SK-MEL-5 melanoma
# [8] = tested on: SN12C renal
# [9] = tested on: SNB-19 CNS
# [10] = tested on: SR leukemia
SMILES,GI50 [1],TGI [1] [µM],GI50 [2],TGI [2] [µM],GI50 [3],TGI [3] [µM],GI50 [4] [µM],TGI [4] [µM],GI50 [5],TGI [5],GI50 [6] [µM],TGI [6] [µM],GI50 [7] [µM],TGI [7] [µM],GI50 [8],TGI [8] [µM],GI50 [9] [µM],TGI [9] [µM],GI50 [10] [µM],TGI [10]
Cc1cc2c(cc1Cl)S/C(=C/C(=O)O)C(Nc1ccc3ncsc3c1)=NS2(=O)=O,> 26.7 µM,> 33.9,9.93 µM,> 42.9,27.5 µM,> 48,22.4,62.9,1.68 µM,19.3 µM,> 29.3,> 61.3,> 14.6,> 24,16.5 µM,> 64.8,> 34.3,> 56.2,14.6,77.9 µM
O=C(Nc1cccc(O)c1)c1ccc(NC2=C(Cl)C(=O)N(Cc3ccc(Cl)cc3Cl)C2=O)cc1,1.9 µM,4.18,6.89 µM,> 56.4,1.84 µM,3.66,1.62,3.16,0.749 µM,2.52 µM,5.29,14.5,4.71,9.73,1.99 µM,4.09,2.69,7.68,0.168,0.411 µM
CC1(C)CNc2cc(NC(=O)c3cccnc3NCc3ccncc3)ccc21,34.2 µM,> 100,34.3 µM,> 100,38 µM,> 100,23.3,> 100,21.9 µM,> 100 µM,17.2,47.8,16,30.8,25.5 µM,> 100,48.4,> 100,26.1,> 100 µM
CCN(Cc1ccccc1)C1CCN(Cc2cc(Br)ccc2O)CC1,17 µM,39.6,23.2 µM,> 100,42.3 µM,> 100,23.3,63.6,25.5 µM,> 100 µM,85.4,> 100,15,28.9,42.9 µM,> 100,57.2,> 100,27.8,> 100 µM
O=c1[nH]c2ccccc2nc1/C=C(\O)c1ccccc1O,–,> 100,–,> 100,–,> 100,–,> 100,–,> 100 µM,–,> 100,–,> 100,–,> 100,–,> 100,–,> 100 µM
COc1ccc(-c2nc(-c3ccc(C)cc3)cn3ccnc23)cc1,2.87 µM,> 50,2.61 µM,> 50,3.25 µM,> 50,3.43,13.8,2.89 µM,> 50 µM,20.8,> 50,1.68,5.2,6.12 µM,> 50,13.8,> 50,0.3,> 50 µM
Cc1ccccc1NC(=O)c1sc2nc(C)c(C(=O)/C=C/c3ccccc3)cc2c1N,1.65 µM,5.27,0.896 µM,1.96,0.901 µM,2.02,0.864,1.62,1.2 µM,3.48 µM,1.81,8.59,1.11,2.71,1.07 µM,2.5,1.16,3.58,1.13,> 50 µM
OC(COC(c1ccccc1)(c1ccccc1)c1ccccc1)C(O)CC1SCCS1 (configuration not stated),–,38.4,–,37.1,–,29.8,–,32,–,34.2 µM,–,34.3,–,40.1,–,45.2,–,54.9,–,0.953 µM
CC(C)(C)C1CCC2c3c([nH]c4ccccc34)C3C(=O)N(c4ccc(Cl)cc4)C(=O)C3C2C1 (configuration not stated),49.9 µM and > 10 µM,> 100,65.3 µM and > 10 µM,> 100,44.3 µM and > 10 µM,> 100,–,0.0487,27.2 µM and > 10 µM,77 µM and > 10 µM,–,> 10,> 100,> 100,37.4 µM and > 10 µM,> 100,> 100,> 100,–,39.5 µM and > 10 µM
COC(=O)C1=C(O)[C@H](C(=O)OC)C2(O)C(C(=O)OC)[C@H](c3ccc(OC(=O)C(C)c4ccc(CC(C)C)cc4)cc3)C[C@@H]1[C@@H]2C(=O)OC (some centres not stated),12.3 µM,41.3,> 50 µM,> 50,40.3 µM,> 50,6.06,14.9,4.62 µM,> 50 µM,24.9,> 50,15,> 50,9.58 µM,22.9,40,> 50,0.754,> 50 µM
CCC(C)[C@H](NC(=O)Nc1cc(C(F)(F)F)cc(C(F)(F)F)c1)C(=O)N[C@@H](Cc1cn(C)cn1)C(=O)OC (some centres not stated),1.4 µM,1.89,0.606 µM,1.21,0.788 µM,1.83,0.768,1.83,0.721 µM,1.86 µM,1.4,1.89,0.59,1.27,0.544 µM,1.05,0.672,1.52,0.801,2.08 µM
